Consider two molecules from patent US12448655B2, “Antibiotic susceptibility of microorganisms and related methods and systems” (CALIFORNIA INSTITUTE OF TECHNOLOGY, priority 2017, dated 2025).

In one assay the test system is E. coli isolates. Briefly: Quantification of DNA release following antibiotic exposure, filtration and ddPCR (Example 27). Type of assay: cell-based, Escherichia coli. Also noted: dose or concentration left out as unconfirmed. The following applies: 15 min exposure, 0.22 μm filtration, ddPCR. As to the method: Filtration experiments. Filtration experiments were performed using E. coli isolates exposed to 0.5 μg/mL ertapenem for 15 min. Immediately following exposure, cultures were passed through 0.22 μm, 1.5 mL cellulose acetate centrifuge tube filters (Corning Costar Spin-X, Corning, NY) by adding 50 μL of sample to the filter and centrifuging for 4 minutes at 1000 ref. DNA was extracted from both the feed and filtrate using QuickExtract DNA Extraction Solution (Lucigen, Middleton, WI, USA). Samples were diluted 10× into extraction buffer and extracted according to manufacturer instructions. The concentration of the single copy E. coli uidA gene was then quantified in the feed and filtrate extractions. The percentage of E. coli DNA in the filtrate was calculated as the filtrate concentration divided by the feed concentration. Droplet digital PCR (ddPCR) was performed using QX200 ddPCR Supermix for EvaGreen (BioRad). 10% of the final reaction volume was template. Published primers targeting the uidA gene in E. coli were used at a final concentration of 500 nM. Cycling conditions consisted of 5.0 min at 95° C., followed by 40 cycles of 95° C. for 30 sec, 60° C. for 30 sec, and 72° C. for 30 sec., with final dye stabilization steps of 4° C. for 5.0 min followed by 90° C. for 5.0 min.
To investigate the mechanism of pol-aAST, experiments were performed to separate free NAs from NAs contained within structurally intact cells or associated with cell debris. Susceptible and resistant clinical isolates were exposed to β-lactams for 15 min, then filtered through […] filters to remove cells from free NAs. NAs in the sample and eluate were then quantified using droplet digital PCR (ddPCR).

The test system of assay [1] is Neisseria gonorrhoeae. Briefly: AST by inaccessible DNA without enhancing treatment, static incubation time course, qPCR (Example 7). The note with it: penicillin-susceptible isolate ng_15; 1 μg/mL PEN; MHB; DNaseI secondary step. Type of assay: cell-based. The procedure: Antibiotic susceptibility test was performed with methods herein described relying on b-lactam-induced cellular lysis, or cell-wall damage, to generate differences in DNA accessibility between the unexposed and exposed tubes. No enhancing treatment is performed in this example. In this example DNaseI is used to degrade the DNA made accessible by beta-lactam induced damage over incubation times larger than what is tested in examples 1-6 (incubation times >30 minutes)
The layout of this experiment is illustrated in FIG. 14 according to which a penicillin-susceptible isolate is incubated with penicillin for 15 min-6 hours. At each time point, DNaseI will be added to degrade the accessible DNA, then the DNaseI will be inactivated simultaneously with the lysis of the remaining cells. The quantified nucleic acids represent those from the cells with inaccessible DNA throughout the antibiotic exposure and incubation with DNaseI.
The treated and untreated samples were incubated at 37° C. for 15 minutes, Ihr, 2 hr, 3 hr, 4 hr, 5 hr, 6 hr. At each time point, bring the culture tubes into the BSC and incubate an aliquot of the contents with DNaseI to degrade the accessible DNA. • 8. secondary incubation of treated and untreated samples to degrade accessible DNA […]
(In general: Quantitative PCR measures a nucleic acid by following its amplification.)

The test system of assay [2] is Neisseria gonorrhoeae. Briefly: Two-step nuc-aAST on Ng clinical urine samples and their isolates, TNP enhancer (Examples 35, 37). Type of assay: cell-based. The following applies: antibiotic-resistant samples and isolates (Sample #3, #4); 1 μg/mL 30 min, then TNP 3-5 min, DNaseI. The procedure: Clinical sample nuc-aAST. Suspensions of clinical urine samples were prepared as described above. All suspensions were generated, and the ABX-exposure step initiated within 90 min of sample donation. The initial ABX-exposure was performed by incubating 50 μL control and treated samples at 37° C. in PCR tube strips on a BioRad C1000 Thermal Cycler. Treated samples consisted of […] of suspension and 1.25 μL aliquot of PEN or CRO (40 μg/mL). ABX were replaced with NF—H2O in control samples. After 30 min of incubation, samples were vortexed and quickly spun on a benchtop microcentrifuge (Labnet) at 2,000×g for 2-3 sec, and 2.7 μL TNP (100 mM) was added to each sample for the enhancement step. Samples were then immediately vortexed, spun on a benchtop microcentrifuge (Labnet) at 2,000×g for 2-3 sec, and incubated at 37° C. for 3-5 min. After the enhancement step, 20 μL from each sample was extracted by diluting 5× in QuickExtract DNA Extraction Solution (Lucigen) and heating for 6 min at 65° C. followed by 4 min at 98° C. on a BioRad C1000 Thermal Cycler. All sample handling following ABX exposure was performed using a multichannel pipette; qPCR and calculation of percentage accessibility were performed as previously described, with the modification that the qPCR mix included 2 μL of template per 10 μL PCR reaction instead of 1 μL template per 10 μL reaction. […]

In the case of `CO/N=C(\C(=O)N[C@@H]1C(=O)N2C(C(=O)O)=C(CSc3nc(=O)c(=O)[nH]n3C)CS[C@H]12)c1csc(N)n1` [CRO, ceftriaxone], the “average percentage of DNA released from susceptible isolates” value in the assay with E. coli isolates amounted to 6%.

Regarding penicillin, the “antibiotic exposure time needed for a detectable CT ratio without enhancer” value with Neisseria gonorrhoeae [1] was ≥ 3 h. In addition, the “mean percentage accessibility of DNA” value in the assay with Neisseria gonorrhoeae [2] is < 46%.
